US20110212950A1, “4,4-DISUBSTITUTED PIPERIDINES” (NOVARTIS AG, priority 2007, published 2011)

Each compound was assayed against T1, renin (Homo sapiens, UniProt P00797) (assay: in vitro test of Nussberger et al.: formation of angiotensin I in human plasma (radioimmunoassay)). Settings: inhibition of formation of angiotensin I in human plasma.
T1 construct: This test measures the formation of angiotensin I in human plasma; from tissue; host or cells: human plasma
T1 sequence (P00797 67-406): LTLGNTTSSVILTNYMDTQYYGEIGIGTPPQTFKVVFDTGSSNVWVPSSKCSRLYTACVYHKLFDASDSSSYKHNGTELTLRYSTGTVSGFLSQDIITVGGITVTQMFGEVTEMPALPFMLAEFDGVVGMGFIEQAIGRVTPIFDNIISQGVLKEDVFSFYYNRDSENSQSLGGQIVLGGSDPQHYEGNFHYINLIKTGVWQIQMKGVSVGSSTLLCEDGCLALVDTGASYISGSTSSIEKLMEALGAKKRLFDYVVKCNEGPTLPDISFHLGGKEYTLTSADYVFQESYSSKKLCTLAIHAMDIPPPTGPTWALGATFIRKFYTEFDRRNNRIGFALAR
Assay type: biochemical
Protocol: The effect of renin inhibitors is detected inter alia experimentally by means of in vitro tests where the reduction in the formation of angiotensin I is measured in various systems (human plasma, purified human renin together with synthetic or natural renin substrate). The following in vitro test of Nussberger et al. (1987) J. Cardiovascular Pharmacol., Vol. 9, pp. 39-44, is used inter alia. This test measures the formation of angiotensin I in human plasma. The amount of angiotensin I formed is determined in a subsequent radioimmunoassay. The effect of inhibitors on the formation of angiotensin I is tested in this system by adding various concentrations of these substances. The IC50 is defined as the concentration of the particular inhibitor which reduces the formation of angiotensin I by 50%. The compounds of the present invention show inhibitory effects in the in vitro systems at minimal concentrations of about 10^−6 to about 10^−10 mol/I.

IC50 | SMILES
40.4 nM | COCCCN1CCOc2ccc(CO[C@H]3CNCC[C@]3(O)c3ccc(COCCOC)cc3)cc21 [Example 361, (3S,4S)-4-[4-(2-Methoxy-ethoxymethyl)-phenyl]-3-[4-(3-methoxy-propyl)-3,4-dihydro-2H-benzo[1,4]oxazin-6-ylmethoxy]-piperidin-4-ol]
123 nM | COCCCN1CCOc2ccc(CO[C@H]3CNCC[C@]3(O)c3ccc(COC[C@@H](C)Cn4cnnn4)cc3)cc21 [Example 371, (3S,4S)-3-[4-(3-Methoxy-propyl)-3,4-dihydro-2H-benzo[1,4]oxazin-6-ylmethoxy]-4-[4-((S)-2-methyl-3-tetrazol-1-yl-propoxymethyl)-phenyl]-piperidin-4-ol]
84.3 nM | CCO[C@H](C)COCc1ccc([C@@]2(O)CCNC[C@@H]2OCc2ccc3c(c2)N(CCCOC)CCO3)c(OCCOC)c1 [Example 375, (3S,4S)-4-[4-((R)-2-Ethoxy-propoxymethyl)-2-(2-methoxy-ethoxy)-phenyl]-3-[4-(3-methoxy-propyl)-3,4-dihydro-2H-benzo[1.4]oxazin-6-ylmethoxy]-piperidin-4-ol]
9.6 nM | CCO[C@H](C)COCc1ccc([C@@]2(O)CCNC[C@@H]2OCc2ccc3c(c2)N(CCCOC)CCO3)c(CCOC)c1 [Example 378, (3S,4S)-4-[4-((R)-2-Ethoxy-propoxymethyl)-2-(2-methoxy-ethyl)-phenyl]-3-[4-(3-methoxy-propyl)-3,4-dihydro-2H-benzo[1,4]oxazin-6-ylmethoxy]-piperidin-4-ol]
